Experimental data from patent publication US8076487B2, “Pyridone derivative and herbicide” (Kumiai Chemical Industry Co., Ltd., priority 2006, dated 2011).

Tests used:
Type in all cases: in vivo
[1] = system: Japanese bulrush (Scirpus juncoides Roxb.); assay: Test Example 1: herbicidal effect by soil application to paddy field; details: paddy field soil application; active ingredient 1,000 g per 1 hectare; wettable powder added dropwise to water surface the day after sowing; examined on the 21st day after application
Outline: (§1)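 Plants were sown in flooded (3 cm) paddy soil and evaluated for herbicidal effect 21 days after soil application in a greenhouse.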

[2] = system: early watergrass (Echinochloa oryzicola Vasing); assay: as above; details: paddy field soil application; active ingredient 1,000 g per 1 hectare; wettable powder added dropwise to water surface the day after sowing; examined on the 21st day after application
Outline: as §1

[3] = system: heartshape false pickerelweed (Monochoria vaginalis (Burm.f.) C.Presl); assay: as above; details: paddy field soil application; active ingredient 1,000 g per 1 hectare; wettable powder added dropwise to water surface the day after sowing; examined on the 21st day after application
Outline: as §1

[4] = system: barnyardgrass (Echinochloa crus-galli (L.) P. Beauv. var. crus-galli); assay: Test Example 2: herbicidal effect by soil application to upland field; details: soil surface spray, upland field soil, 1,000 g active ingredient per hectare, 21st day after application
Outline: (§2)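 Dose was 1,000 g active ingredient per hectare, applied as a wettable powder diluted in water and sprayed evenly over the soil of sown, covered pots at a 1,000 L/ha equivalent. Effect was judged by a standard scale 21 d later under greenhouse conditions.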

[5] = system: green foxtail (Setaria viridis (L.) P. Beauv.); assay: as above; details: soil surface spray, upland field soil, 1,000 g active ingredient per hectare, 21st day after application
Outline: as §2

[6] = system: slender amaranth (Amaranthus viridis L.); assay: as above; details: soil surface spray, upland field soil, 1,000 g active ingredient per hectare, 21st day after application
Outline: as §2

[7] = system: velvetleaf (Abutilon theophrasti medicus); assay: as above; details: soil surface spray, upland field soil, 1,000 g active ingredient per hectare, 21st day after application
Outline: as §2

[8] = system: barnyardgrass (Echinochloa crus-galli (L.) P. Beauv. var. crus-galli); assay: Test Example 3: herbicidal effect by application to upland field (foliage treatment); details: foliage treatment, 1,000 g active ingredient per 1 hectare, 14th day after application, greenhouse
Outline: (§3)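 Seeds went into pots of field soil and grew under glass for two weeks. The whole plant was then sprayed from above with diluted wettable powder delivering 1,000 g/ha of active ingredient. Plants stayed in the greenhouse, and injury was graded against a standard 14 days after spraying.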

[9] = system: green foxtail (Setaria viridis (L.) P. Beauv.); assay: as above; details: foliage treatment, 1,000 g active ingredient per 1 hectare, 14th day after application, greenhouse
Outline: as §3

[10] = system: slender amaranth (Amaranthus viridis L.); assay: as above; details: foliage treatment, 1,000 g active ingredient per 1 hectare, 14th day after application, greenhouse
Outline: as §3

[11] = system: velvetleaf (Abutilon theophrasti medicus); assay: as above; details: foliage treatment, 1,000 g active ingredient per 1 hectare, 14th day after application, greenhouse
Outline: as §3

| Structure (SMILES) | herbicidal effect, Scirpus juncoides Roxb. [1] | herbicidal effect, Echinochloa oryzicola Vasing [2] | herbicidal effect, Monochoria vaginalis (Burm. f.) C. Presl [3] | herbicidal effect (index), Barnyardgrass [4] | herbicidal effect (index), Green Foxtail [5] | herbicidal effect (index), Slender Amaranth [6] | herbicidal effect (index), Velvetleaf [7] | herbicidal effect, Barnyardgrass [8] | herbicidal effect, Green Foxtail [9] | herbicidal effect, Slender Amaranth [10] | herbicidal effect, Velvetleaf [11] |
| --- | --- | --- | --- | --- | --- | --- | --- | --- | --- | --- | --- |
| CCN(C(=O)OC)n1c(C(F)(F)F)ccc(C(=O)C2=C(O)CCCC2=O)c1=O [I-191] | 5 (90% or more of herbicidal effect and crop phytotoxicity) | 5 (90% or more of herbicidal effect and crop phytotoxicity) | 5 (90% or more of herbicidal effect and crop phytotoxicity) | 5 (90% or more of herbicidal effect and crop phytotoxicity) | 5 (90% or more of herbicidal effect and crop phytotoxicity) | 5 (90% or more of herbicidal effect and crop phytotoxicity) | 5 (90% or more of herbicidal effect and crop phytotoxicity) | 5 (90% or more of herbicidal effect and crop phytotoxicity) | 5 (90% or more of herbicidal effect and crop phytotoxicity) | 5 (90% or more of herbicidal effect and crop phytotoxicity) | 5 (90% or more of herbicidal effect and crop phytotoxicity) |
| CCCn1c(C(F)(F)F)c(C)cc(C(=O)C2=C(O)CCCC2=O)c1=O [I-215] | 5 (90% or more of herbicidal effect and crop phytotoxicity) | 5 (90% or more of herbicidal effect and crop phytotoxicity) | 5 (90% or more of herbicidal effect and crop phytotoxicity) | 5 (90% or more of herbicidal effect and crop phytotoxicity) | 5 (90% or more of herbicidal effect and crop phytotoxicity) | 5 (90% or more of herbicidal effect and crop phytotoxicity) | 5 (90% or more of herbicidal effect and crop phytotoxicity) | 5 (90% or more of herbicidal effect and crop phytotoxicity) | 5 (90% or more of herbicidal effect and crop phytotoxicity) | 5 (90% or more of herbicidal effect and crop phytotoxicity) | 5 (90% or more of herbicidal effect and crop phytotoxicity) |
| Cn1c(C(F)F)ccc(C(=O)C2=C(O)CCCC2=O)c1=O [I-221] | 5 (90% or more of herbicidal effect and crop phytotoxicity) | 5 (90% or more of herbicidal effect and crop phytotoxicity) | 5 (90% or more of herbicidal effect and crop phytotoxicity) | 5 (90% or more of herbicidal effect and crop phytotoxicity) | 3 (50 to less than 70% of herbicidal effect and crop phytotoxicity) | 5 (90% or more of herbicidal effect and crop phytotoxicity) | 5 (90% or more of herbicidal effect and crop phytotoxicity) | 5 (90% or more of herbicidal effect and crop phytotoxicity) | 4 (70 to less than 90% of herbicidal effect and crop phytotoxicity) | 5 (90% or more of herbicidal effect and crop phytotoxicity) | 5 (90% or more of herbicidal effect and crop phytotoxicity) |
| O=C1CCCC(O)=C1C(=O)c1ccc(C(F)F)n(-c2ccccc2)c1=O [I-223] | 5 (90% or more of herbicidal effect and crop phytotoxicity) | 5 (90% or more of herbicidal effect and crop phytotoxicity) | 5 (90% or more of herbicidal effect and crop phytotoxicity) | 5 (90% or more of herbicidal effect and crop phytotoxicity) | 5 (90% or more of herbicidal effect and crop phytotoxicity) | 5 (90% or more of herbicidal effect and crop phytotoxicity) | 5 (90% or more of herbicidal effect and crop phytotoxicity) | 5 (90% or more of herbicidal effect and crop phytotoxicity) | 5 (90% or more of herbicidal effect and crop phytotoxicity) | 5 (90% or more of herbicidal effect and crop phytotoxicity) | 5 (90% or more of herbicidal effect and crop phytotoxicity) |
| O=C1CCCC(O)=C1C(=O)c1cc(Br)c(C(F)F)n(-c2ccccc2)c1=O [I-224] | 5 (90% or more of herbicidal effect and crop phytotoxicity) | 5 (90% or more of herbicidal effect and crop phytotoxicity) | 5 (90% or more of herbicidal effect and crop phytotoxicity) | 5 (90% or more of herbicidal effect and crop phytotoxicity) | 5 (90% or more of herbicidal effect and crop phytotoxicity) | 5 (90% or more of herbicidal effect and crop phytotoxicity) | 5 (90% or more of herbicidal effect and crop phytotoxicity) | 5 (90% or more of herbicidal effect and crop phytotoxicity) | 5 (90% or more of herbicidal effect and crop phytotoxicity) | 5 (90% or more of herbicidal effect and crop phytotoxicity) | 5 (90% or more of herbicidal effect and crop phytotoxicity) |
| Cn1c(C(F)(F)C(F)(F)F)ccc(C(=O)C2=C(O)CCCC2=O)c1=O [I-227] | 5 (90% or more of herbicidal effect and crop phytotoxicity) | 5 (90% or more of herbicidal effect and crop phytotoxicity) | 5 (90% or more of herbicidal effect and crop phytotoxicity) | 4 (70 to less than 90% of herbicidal effect and crop phytotoxicity) | 5 (90% or more of herbicidal effect and crop phytotoxicity) | 5 (90% or more of herbicidal effect and crop phytotoxicity) | 5 (90% or more of herbicidal effect and crop phytotoxicity) | 3 (50 to less than 70% of herbicidal effect and crop phytotoxicity) | 5 (90% or more of herbicidal effect and crop phytotoxicity) | 5 (90% or more of herbicidal effect and crop phytotoxicity) | 5 (90% or more of herbicidal effect and crop phytotoxicity) |
| CCc1ccc(C(=O)C2=C(O)CCCC2=O)c(=O)n1-c1ccccc1 [I-230] | 5 (90% or more of herbicidal effect and crop phytotoxicity) | 5 (90% or more of herbicidal effect and crop phytotoxicity) | 5 (90% or more of herbicidal effect and crop phytotoxicity) | 4 (70 to less than 90% of herbicidal effect and crop phytotoxicity) | 5 (90% or more of herbicidal effect and crop phytotoxicity) | 5 (90% or more of herbicidal effect and crop phytotoxicity) | 5 (90% or more of herbicidal effect and crop phytotoxicity) | 5 (90% or more of herbicidal effect and crop phytotoxicity) | 4 (70 to less than 90% of herbicidal effect and crop phytotoxicity) | 5 (90% or more of herbicidal effect and crop phytotoxicity) | 5 (90% or more of herbicidal effect and crop phytotoxicity) |
